This passage reports Ki and JAK2 activity results from US10858339B2, “Aryl cyclopropyl-amino-isoquinolinyl amide compounds” (priority 2017, dated 2020).

The target in one experiment is JAK2 (Homo sapiens, UniProt O60674). Kind of experiment: JAK kinase assay, JAK2 enzyme.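 On all read-outs here: JAK2 kinase reaction run 75 min at room temperature, leftover ATP read by Kinase-Glo luminescence, 11-point dilution series in 2.5% DMSO, percent of inhibitor-free DMSO control.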 It is filed as biochemical. Particulars: for Ki: Table 15, in brackets in the activity cell, read-out: JAK2 activity.
For the next experiment, the target named is Rho Kinase. Kind of experiment: ROCK kinase inhibition assay (Rho Kinase Activity, isoform not given). Particulars: Table 15, mostly given as ranges. It is filed as biochemical. As to the method:
All compounds were initially prepared as 10 mM stocks in anhydrous dimethylsulfoxide (DMSO). A 20 μl aliquot of the 10 mM solutions was transferred to individual wells in column 1 of a 96-well polypropylene microtiter plate (Corning #3363) and diluted with DMSO to give a final compound concentration of 4 mM. Test compounds were then serially diluted 1:5 in DMSO for an 11-point concentration response and further diluted in the assay buffer bringing all compound concentrations to a final range of 100 μM to […] in 2.5% DMSO. The assay was performed in white 96-well, flat-bottom, half-area, non-binding assay plate (Corning #3642) in assay buffer consisting of 20 mM HEPES (pH 7.5), 10 mM MgCl2*6H2O, 100 μM sodium orthovanadate, 0.05% CHAPS and 0.1% bovine serum albumin. A 10 μL aliquot of compound from each well of the intermediate dilution plate and 20 μL of a 2× substrate/enzyme solution containing acceptor substrate (800 nM RSK2 peptide […] (SEQ ID NO: 1)), ROCK2 enzyme (10 nM), or ROCK1 enzyme, and 1,4-Dithiothreitol (DTT, 2 uM) were added to all wells. The reaction was initiated by the addition of 10 μL of 4× stock solution ATP (2 μM). Reactions were thoroughly mixed manually, covered and allowed to incubate at room temperature for 75 min. Protein kinase activity was quantitated using Promega's KINASE-GLO™ luminescent Kinase Assay Kit according to the manufacturer's directions. ATP concentrations remaining in Test wells following the termination of the enzymatic reaction were compared against control wells containing equivalent amounts of DMSO containing no inhibitor (CTRL). […] Percent of Control (POC) values were determined for each concentration of compound tested according to the equation: POC=((Test well value−BKG)/(CTRL−BKG))*100
IC50 values were converted to K; […]

Structures can show the parent of a compound that is named as a salt.

Chain of JAK2 (O60674 whole entry, species assumed, canonical isoform): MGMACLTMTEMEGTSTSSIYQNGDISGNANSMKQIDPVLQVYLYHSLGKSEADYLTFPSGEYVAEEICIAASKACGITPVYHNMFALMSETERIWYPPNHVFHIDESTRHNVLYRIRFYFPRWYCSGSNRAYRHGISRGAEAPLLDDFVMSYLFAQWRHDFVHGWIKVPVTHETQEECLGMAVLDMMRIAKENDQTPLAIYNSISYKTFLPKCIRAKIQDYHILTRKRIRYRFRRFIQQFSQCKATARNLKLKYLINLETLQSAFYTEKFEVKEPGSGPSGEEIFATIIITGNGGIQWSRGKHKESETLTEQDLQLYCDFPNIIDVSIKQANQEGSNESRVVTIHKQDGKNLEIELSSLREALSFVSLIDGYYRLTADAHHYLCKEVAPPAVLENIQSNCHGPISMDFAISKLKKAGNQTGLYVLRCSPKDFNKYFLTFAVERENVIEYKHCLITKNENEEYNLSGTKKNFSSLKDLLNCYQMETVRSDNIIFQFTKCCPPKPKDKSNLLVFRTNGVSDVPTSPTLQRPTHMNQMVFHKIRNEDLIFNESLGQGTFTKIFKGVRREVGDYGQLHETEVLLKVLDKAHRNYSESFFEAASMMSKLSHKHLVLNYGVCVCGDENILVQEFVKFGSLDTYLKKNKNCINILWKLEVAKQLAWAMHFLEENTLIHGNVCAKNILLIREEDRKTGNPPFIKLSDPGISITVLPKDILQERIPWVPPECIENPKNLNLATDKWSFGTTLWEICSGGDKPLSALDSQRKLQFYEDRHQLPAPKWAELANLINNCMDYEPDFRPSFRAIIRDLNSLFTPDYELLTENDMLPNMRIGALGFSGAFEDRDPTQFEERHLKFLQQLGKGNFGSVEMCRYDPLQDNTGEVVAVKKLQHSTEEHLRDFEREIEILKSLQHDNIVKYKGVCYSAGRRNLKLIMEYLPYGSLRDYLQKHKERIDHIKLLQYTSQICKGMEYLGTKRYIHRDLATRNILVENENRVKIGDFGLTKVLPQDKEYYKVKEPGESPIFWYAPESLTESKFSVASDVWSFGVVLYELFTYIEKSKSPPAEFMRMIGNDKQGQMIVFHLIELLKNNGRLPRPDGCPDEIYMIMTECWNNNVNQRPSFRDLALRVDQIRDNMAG

With `C[C@@H]1OC(c2ccc(C3CC3C(=O)Nc3ccc4cnccc4c3)cc2)O[C@@H]1C` (stereo partly drawn) [Example E158, trans-2-(4-((4S,5S)-4,5-dimethyl-1,3-dioxolan-2-yl)phenyl)-N-(isoquinolin-6-yl)cyclopropane-1-carboxamide], the Ki at JAK2 was 1 µM; on Rho Kinase it was 0.165 to 0.215 µM.
The corresponding values for `O=C(NCC1CCCN1)c1ccc(C2CC2C(=O)Nc2ccc3cnccc3c2)cc1` (stereo not shown) [Example E19.2] are 0.3 to 0.35 µM and 0.006 to 0.012 µM.
The corresponding values for `O=C(NCc1cccnc1)c1cccc(C2CC2C(=O)Nc2ccc3cnccc3c2)c1` (stereo not shown) [Example E173] are 0.2 µM and 0.0007 to 0.001 µM.
For `O=C(NCc1ccccn1)c1ccc([C@@H]2C[C@H]2C(=O)Nc2ccc3cnccc3c2)cc1` [Example E54, 4-((1R,2R)-2-(isoquinolin-6-ylcarbamoyl)cyclopropyl)-N-(pyridin-2-ylmethyl)benzamide], in that order: 0.015 to 0.09 µM and 0.001 to 0.002 µM.
As for `O=C(NCc1ccccn1)c1ccc(C2CC2C(=O)Nc2ccc3cnccc3c2)cc1` (stereo not shown) [Example E9], the Ki at JAK2 lay within 0.065 to 0.1 µM; on Rho Kinase, 0.003 to 0.005 µM.
`O=C(OCc1ccccc1)c1ccc(C2CC2C(=O)Nc2cc3ccncc3cc2Cl)cc1` (stereo not shown) [Example E104.1]: the JAK2 activity entry on JAK2 was “inactive”. This compound also yielded a Ki on Rho Kinase of 0.015 to 0.075 µM.
Regarding `O=C(NC[C@@H]1CCCNC1)c1ccc([C@@H]2C[C@H]2C(=O)Nc2ccc3cnccc3c2)cc1` [Example E57.2], the Ki on JAK2 is 0.007 µM; at Rho Kinase, 0.0001 to 0.001 µM.
For `O=C(NCc1ccc(C(F)(F)F)cc1)c1ccc(C2CC2C(=O)Nc2ccc3cnccc3c2)cc1` (stereo not shown) [Example E16], in that order: 2.5 to 9 µM and 0.005 to 0.075 µM.
Turning to `CC(C)(C)OC(=O)N1CCC(CNC(=O)c2ccc(C3CC3C(=O)Nc3ccc4cnccc4c3)cc2)CC1` (stereo not shown) [Example E29.1], the values for the Ki at JAK2 and at Rho Kinase were 1 to 6 µM and 0.0005 to 0.001 µM, respectively.
For `O=C(NCc1cccnc1)c1ccc([C@@H]2C[C@H]2C(=O)Nc2ccc3cnccc3c2)cc1` [Example E56], in that order: 0.04 to 0.12 µM and 0.0005 to 0.003 µM.
The corresponding values for `CN(C)CCNC(=O)c1ccc(C2CC2C(=O)Nc2ccc3cnccc3c2)cc1` (stereo not shown) [Example E37] are 0.8 µM and 0.0043 to 0.009 µM.
With `O=C(NCc1cccnc1)c1ccc(C2CC2C(=O)Nc2ccc3cncc(F)c3c2)cc1` (stereo not shown) [Example E33], the results for the Ki at JAK2 and at Rho Kinase were 0.075 to 0.11 µM and 0.005 to 0.008 µM, respectively.
The corresponding values for `O=Cc1ccc([C@@H]2C[C@H]2C(=O)Nc2ccc3cnccc3c2)cc1` (racemic) [Example E159, trans-2-(4-formylphenyl)-N-(isoquinolin-6-yl)cyclopropane-1-carboxamide] are 0.27 µM and 0.02 to 0.05 µM.
For `O=C(NCc1cccnc1)c1ccc(C2CC2C(=O)Nc2cc3ccncc3cc2Br)cc1` (stereo not shown) [Example E32], in that order: 0.4 to 1.3 µM and 0.0025 to 0.0045 µM.
Regarding `CC(C)(C)OC(=O)N1CCCC1CNC(=O)c1ccc(C2CC2C(=O)Nc2ccc3cnccc3c2)cc1` (stereo not shown) [Example 19.1], the Ki at JAK2 lay in the range of 1.5 to 3.5 µM; at Rho Kinase, 0.03 to 0.06 µM.
For `CC(C)(C)OC(=O)c1ccc([C@@H]2C[C@H]2C(=O)Nc2ccc3cnccc3c2)c(F)c1` (relative stereo) [Example E191, trans-tert-butyl 3-fluoro-4-(2-(isoquinolin-6-ylcarbamoyl)cyclopropyl)benzoate], in that order: 3 µM and 0.125 to 0.185 µM.
Turning to `O=C(NCc1cccnc1)c1ccc([C@@H]2C[C@H]2C(=O)Nc2ccc3cnccc3c2)cc1` (relative stereo) [Example E8, trans-4-(2-(isoquinolin-6-ylcarbamoyl)cyclopropyl)-N-(pyridin-3-ylmethyl)benzamide], the values for the Ki at JAK2 and at Rho Kinase were 0.2 µM and 0.001 to 0.01 µM, respectively.
With `O=C(OCc1ccccc1)c1ccc([C@@H]2C[C@H]2C(=O)Nc2ccc3cnccc3c2)cc1` [Example E115, benzyl 4-((1R,2R)-2-(isoquinolin-6-ylcarbamoyl)cyclopropyl)benzoate], the values for the Ki at JAK2 and at Rho Kinase were 3 to 5 µM and 0.04 to 0.075 µM, respectively.
Regarding `O=C(NCc1ccccn1)c1ccc([C@H]2C[C@@H]2C(=O)Nc2ccc3cnccc3c2)cc1` [Example E55], on JAK2, the JAK2 activity entry is “inactive”. The Ki on Rho Kinase lay in the range of 12 to 52 µM.
On to `O=C(NCc1cccnc1)c1ccc([C@@H]2C[C@H]2C(=O)Nc2ccc3cnccc3c2F)cc1` [Example E56.1], for which the figures for the Ki on JAK2 and on Rho Kinase were 0.04 to 0.075 µM and 0.0001 to 0.0005 µM, respectively.
For `CC(C)(C)OC(=O)N1CCC(CNC(=O)c2ccc(C3CC3C(=O)Nc3ccc4cnccc4c3)cc2)C1` (stereo not shown) [Example E20.1], in that order: 0.7 to 2 µM and 0.0005 to 0.002 µM.
On to `O=C(NCc1cccnc1)c1ccc(C2CC(=O)N(c3ccc4cnccc4c3)C2)cc1` (stereo not shown) [Example E232, 4-(1-(isoquinolin-6-yl)-5-oxopyrrolidin-3-yl)-N-(pyridin-3-ylmethyl)benzamide], for which the Ki on Rho Kinase was in the range of 6.5 to 16 µM.
On to `O=C(NCCN1CCCCC1)c1ccc(C2CC2C(=O)Nc2ccc3cnccc3c2)cc1` (stereo not shown) [Example E39], for which the Ki at JAK2 is 0.4 µM; at Rho Kinase, 0.005 to 0.007 µM.
`O=C1CC(c2ccc(CNCc3cccnc3)cc2)CN1c1ccc2cnccc2c1` (stereo not shown) [Example E225, 1-(isoquinolin-6-yl)-4-(4-(((pyridin-3-ylmethyl)amino)methyl)phenyl)pyrrolidin-2-one] had a Ki on Rho Kinase of 1.35 to 2.2 µM.
Regarding `O=C(NCc1cccnc1)c1ccc(C2CC2C(=O)Nc2ccc3cnccc3c2F)cc1` (stereo not shown) [Example E35], the Ki is 0.3 to 0.95 µM on JAK2 and 0.0005 to 0.008 µM at Rho Kinase.
On to `O=C(OCc1ccccc1)c1ccc(C2CC2C(=O)Nc2ccc3c(O)nccc3c2)cc1` (stereo not shown) [Example E100.1], for which the JAK2 activity entry on JAK2 was “inactive”. Also, the Ki on Rho Kinase amounted to 0.025 µM.
Compound `O=C(NCC1CCNCC1)c1ccc(C2CC(=O)N(c3ccc4cnccc4c3)C2)cc1` (stereo not shown) [Example E234.2] displayed a Ki on Rho Kinase of 1 to 1.25 µM.
Same read-out and setting: under `O=C(NCc1ccccc1)c1ccc([C@@H]2C[C@H]2C(=O)Nc2ccc3cnccc3c2F)cc1` [Example E115.1] stands 0.0001 to 0.001 µM; under `O=C(Nc1ccc2cnccc2c1)[C@@H]1C[C@H]1c1ccc(S(=O)(=O)NC[C@@H]2CCCNC2)cc1` [Example E248F, trans-N-(isoquinolin-6-yl)-2-(4-(N—(((R)-piperidin-3-yl)methyl)sulfamoyl)phenyl)-cyclopropane-1-carboxamide dihydrochloride], 0.003 to 0.005 µM; under `O=C1CC(c2ccc(CNCc3ccccn3)cc2)CN1c1ccc2cnccc2c1` (stereo not shown) [Example E226], 1.9 to 9.3 µM.
On the same count and under the same terms, under `CC(C)(C)OC(=O)c1ccc(C2CC(=O)N(c3ccc4cnccc4c3)C2)cc1F` (stereo not shown) [Example E230.1] stands 9.3 µM; under `O=C(Nc1ccc2cnccc2c1)[C@@H]1C[C@H]1c1ccc(OCc2ccccc2)cc1` (relative stereo) [Example E210, trans-2-(4-(benzyloxy)phenyl)-N-(isoquinolin-6-yl)cyclopropane-1-carboxamide], 0.06 to 0.3 µM; under `Cc1nccc2cc(NC(=O)C3CC3c3ccc(C(=O)NCc4cccnc4)cc3)ccc12` (stereo not shown) [Example E36], 0.075 to 0.2 µM.
On to `O=C(NCc1cccc(F)c1)OCc1ccc([C@@H]2C[C@H]2C(=O)Nc2ccc3cnccc3c2)cc1` (relative stereo) [Example E142, trans-4-(2-(isoquinolin-6-ylcarbamoyl)cyclopropyl)benzyl (3-fluorobenzyl)carbamate], for which the Ki on Rho Kinase lay within 0.03 to 0.8 µM.
On Rho Kinase, `O=C(Nc1ccc2cnccc2c1)[C@@H]1C[C@H]1c1ccc(S(=O)(=O)Nc2ccccc2)cc1` (relative stereo) [Example E247A, trans-N-(isoquinolin-6-yl)-2-(4-(N-phenylsulfamoyl)phenyl) cyclopropane-1-carboxamide] displayed a Ki of 0.07 to 0.35 µM.
Still for that read-out and setting: under `O=C(Nc1ccc2cnccc2c1)[C@@H]1C[C@H]1c1ccc(S(=O)(=O)NCC2CCNCC2)cc1` (relative stereo) [Example E248D, trans-N-(isoquinolin-6-yl)-2-(4-(N-(piperidin-4-ylmethyl)sulfamoyl)phenyl) cyclopropane-1-carboxamide dihydrochloride] stands 0.005 to 0.009 µM; under `O=C(Nc1ccc2cnccc2c1)C1CC1c1ccc(CNCC2CCNCC2)cc1` (stereo not shown) [Example E162.2], 0.125 to 0.3 µM; under `O=C(Nc1ccc(Oc2ccccc2)cc1)c1ccc(C2CC2C(=O)Nc2ccc3cnccc3c2)cc1` (stereo not shown) [Example E39.1], 0.075 to 0.11 µM.
In the case of `O=C(OCc1ccccc1)c1cccc([C@@H]2C[C@H]2C(=O)Nc2ccc3cnccc3c2)c1` (relative stereo) [Example E170, trans-benzyl 3-(2-(isoquinolin-6-ylcarbamoyl)cyclopropyl)benzoate], the Ki on Rho Kinase is 0.65 to 1.25 µM.
In the case of `COc1ccc(CNC(=O)c2ccc(C3CC3C(=O)Nc3ccc4cnccc4c3)cc2)cc1` (stereo not shown) [Example E15], the Ki at Rho Kinase was 0.001 to 0.005 µM.
